Molecules are shown by their SMILES.

From patent publication US9839632B2, “Methods and compositions using 4-amino-2-(2,6-dioxo-piperidine-3-yl)-isoindoline-1,3-dione for treatment and management of central nervous system cancers” (CELGENE CORPORATION, priority 2013, dated 2017) come the findings set out here.

Data set [1] deals with primary murine peritoneal macrophages. Briefly: Polarization of IL4-treated primary murine peritoneal macrophages (immunofluorescence). The class given is cell-based. The following applies: IL-4 20 ng/ml 48 hours then 10 ug/ml 48 hours. On the procedure:
Treatments: In experiments in which IL-4 was used to induce M2 polarization of macrophages, cells were treated with IL-4 (20 ng/ml) for 48 hours followed by treatment with 4-amino-2-(2,6-dioxo-piperidine-3-yl)-isoindoline-1,3-dione (10 ug/ml) or DMSO control for 48 hours. In triple cell culture experiments with lymphoma cells, macrophages, and NK cells, the treatment was with either DMSO or 4-amino-2-(2,6-dioxo-piperidine-3-yl)-isoindoline-1,3-dione (10 ug/ml) for 48 hours.
Immunofluorescence for analysis of macrophage polarization in cell culture experiments: Live cells were fixed in 10% formalin for 30 minutes at room temperature followed by permeabilization with PBS-0.2% Triton X-100 for 2 min. After blocking with PBS-5% goat serum-0.02% Triton X-100 for 30 minutes at 37° C., the cells were incubated overnight at 4° C. with rat monoclonal F4/80 antibody (for primary microglia cells, 1:200 Abcam), rat monoclonal CD11b (for U937, 1:200 Biolegend), rabbit polyclonal Ym1 antibody (for primary microglia cells and primary peritoneal macrophages, 1:200, Stemcell Technologies, Vancouver, Canada), rabbit polyclonal FXIII A antibody (for U937, 1:200, Abcam), mouse monoclonal p-STAT1 antibody (1:200, Abcam), rabbit polyclonal p-STAT6 antibody (1:200, Abcam) or rabbit iNOS antibody (1:200, Calbiochem). […]

For another data set, the system named is Raji B lymphoma cells. Briefly: Orthotopic murine CNS lymphoma model, Raji (bioluminescence tumor growth, survival). The class given is in vivo, athymic mice. The following applies: for median survival: Raji model; for in vivo tumor growth (luminescence signal) vs control: P<0.05, n=8. On the procedure: Animal and housing: Female athymic mice (8-10 weeks old and weighing 20-25 g at the beginning of the study) were purchased from Harlan laboratories. They were housed in a temperature-controlled sterilized room (23±2° C.) with a 12-h light/dark cycle and free access to food and water throughout the study. Animal use was approved by Mayo Foundation Institutional Animal Use and Care Committee and was in accordance with NIH Guide for the Care and Use of Laboratory Animals.
Orthotopic murine CNS lymphoma models: Two murine CNS lymphoma models were created by intracerebral injection of 2.5×10^4 luciferase-transfected Raji or 1×10^5 luciferase-transfected OCI-LY10 B lymphoma cells in athymic mice under anesthesia using a stereotactic platform. Eight-week-old athymic mice underwent minimum 7-day acclimation/quarantine prior to surgery. Surgery was performed in a laminar flow hood under sterile conditions. Tylenol 300 mg/kg PO was given for analgesia 24 hours before the surgery continuing 48 hours postoperatively. Anesthesia was achieved by inhalation of 1-2% isoflurane. After the mouse became well anesthetized, it was placed in the Kopf stereotactic instrument. A small amount of BNP antibiotic cream (a mixture of Bacitracin, Neomycin and Polymyxin) was smeared on its eyes to prevent infection and corneal damage during surgery. A strip of soft fabric was placed over the mouse's body and tail to prevent excessive heat loss during surgery. The scalp area was cleaned with a 2% solution of Betadine and dried with cotton tipped applicator. A midline sagittal incision was made in the scalp. A small burr hole was drilled in the left skull with a surgical drill (Kopf) or a Dremel drill according to the coordinates (AP: 0.5 mm, LM: 2.5 mm) as determined by reference to the mouse brain atlas by Franklin and Paxinos. Paxinos, 2001. The dura mater was surgically exposed, and a 10 μl-Hamilton syringe with a 26S-gauge beveled needle was lowered into the left cerebral hemisphere up to the depth of 3 mm and 5 μl of tumor cells was slowly infused (0.5 μl/min). The needle was left in place for 5 minutes to prevent reflux and then was slowly removed. The skin was closed with wound clips. The mice recovered from anesthesia and surgery in a warm environment and were not returned to their cages until motor activity returned. Cages were placed on top of a heating pad to minimize the loss of body heat during the recovery. The mice were monitored postoperatively at least twice a day for 5 days or until recovery was complete.
Bioluminescence imaging of mouse: After intracerebral injection of lymphoma cells, all the mice were subjected to bioluminesence imaging (“BLI”) twice a week starting at day-4 post-intracerebral injection to monitor the real-time in vivo tumor growth. BLI was conducted using a Xenogen Lumina optical imaging system (Caliper Life Sciences, Hopkinton, Mass.). Mice were anesthetized with isofluorane before intraperitoneal injections of luciferin at a dose of 150 mg/kg, providing a saturating substrate concentration for luciferase enzyme. Peak luminescent signals were recorded 10 minutes after luciferin injection. Regions of interest encompassing the intracranial area of signal were defined using Living Image software (Xenogen), and the total photons/s/steradian/cm^2 was recorded.
In vivo preclinical evaluation of 4-amino-2-(2,6-dioxo-piperidine-3-yl)-isoindoline-1,3-dione in murine CNS lymphoma models: Mice were imaged 4 days after intracerebral injection and were distributed among different treatment groups with equivalent average BLI signal. Real time tumor growth was monitored by BLI. Tumor growth and survival data were analyzed for statistical difference between the groups. Mice were assigned to four experimental groups and one vehicle control group in Raji model. Mice in experimental groups received 4-amino-2-(2,6-dioxo-piperidine-3-yl)-isoindoline-1,3-dione 0.3 mg/kg, 3 mg/kg, 10 mg/kg, or 30 mg/kg by oral gavage daily for 28 days.

Turning to `Nc1cccc2c1C(=O)N(C1CCC(=O)NC1=O)C2=O` (stereo not drawn) [Pomalidomide, 4-amino-2-(2,6-dioxo-piperidine-3-yl)-isoindoline-1,3-dione], the “polarization status (FXIII A, pSTAT6 vs iNOS, pSTAT1 expression)” value in data set [1] is on record as “from M2 to M1”. Moreover, the “body weight vs control group” value in the data set with Raji B lymphoma cells (3, 10 and 30 mg/kg treatment groups, murine CNS lymphoma model not specified) is “able to maintain their body weight better than those in control group”. Further, the median survival in the data set with Raji B lymphoma cells (0.3 mg/kg oral gavage daily for 28 days) amounted to 24 days; with Raji B lymphoma cells (3 mg/kg oral gavage daily for 28 days) it was 28 days; with Raji B lymphoma cells (10 mg/kg oral gavage daily for 28 days) it was 27 days; in the data set with Raji B lymphoma cells (30 mg/kg oral gavage daily for 28 days), 31 days. Moreover, the “in vivo tumor growth (luminescence signal) vs control” value in the data set with Raji B lymphoma cells (Raji model, 3, 10 and 30 mg/kg groups) is recorded as “significantly slower”; in the data set on Raji B lymphoma cells (Raji model, 3, 10 and 30 mg/kg groups, listed as 4-amino-2-(2,6-dioxo-piperidine-3-yl)-isoindoline-1,3-dione), “reduction of tumor growth”. Moreover, the “survival, Kaplan-Meier analysis vs control” value in the data set on Raji B lymphoma cells (Raji model, 3, 10 and 30 mg/kg groups, p<0.05, n=8) is listed as “prolongation of survival”.
